Assay results published in ChEMBL document CHEMBL1201862, “PubChem BioAssay data set” (2004).
Activity calls are given as the source filed them.

Legend:
[1] = target: T1, Calpain-2 catalytic subunit (Sus scrofa, UniProt P43367); assay: m-calpain protease blockers, concentration series – biochemical, fluorogenic peptide substrate, dose response (AID 1420); format: functional
T1 sequence (P43367 whole entry): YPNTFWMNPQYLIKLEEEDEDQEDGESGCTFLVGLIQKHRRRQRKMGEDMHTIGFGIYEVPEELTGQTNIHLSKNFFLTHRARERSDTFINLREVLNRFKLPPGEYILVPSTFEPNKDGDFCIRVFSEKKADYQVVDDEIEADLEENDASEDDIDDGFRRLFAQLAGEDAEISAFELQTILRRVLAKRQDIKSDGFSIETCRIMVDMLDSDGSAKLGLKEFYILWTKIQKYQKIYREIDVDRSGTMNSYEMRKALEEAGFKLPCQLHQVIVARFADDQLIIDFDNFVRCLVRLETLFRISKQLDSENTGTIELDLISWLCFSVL

[2] = P. falciparum Dd2 growth inhibitors, dose response, SYBR Green, cherry-picked samples (AID 1159567); format: functional, cell-based
[3] = blockers of HIV-1 envelope-mediated cell-cell fusion – cherry-pick, dose response (AID 652057); format: functional, cell-based
[4] = blockers of HIV-1 ZM109 envelope-driven cell-cell fusion – HeLa effector, CEM target cells, luciferase, cherry-pick, dose response (AID 652058); format: functional, cell-based;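 further: luciferase signal from HIV-1 Env mediated cell-cell fusion of effector and target cells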
[5] = HIV-1 AD8 envelope cell-cell fusion blockers – cherry-pick, dose response (AID 652062); format: functional, cell-based;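 further: luciferase signal from cell-cell fusion driven by HIV-1 clade B AD8 Env; potency is for inhibitors of fusion seen as a drop in luminescence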
Protein skinhead-1 = target: T2, Protein skinhead-1 (Caenorhabditis elegans, UniProt P34707); format: functional
T2 sequence (P34707 whole entry): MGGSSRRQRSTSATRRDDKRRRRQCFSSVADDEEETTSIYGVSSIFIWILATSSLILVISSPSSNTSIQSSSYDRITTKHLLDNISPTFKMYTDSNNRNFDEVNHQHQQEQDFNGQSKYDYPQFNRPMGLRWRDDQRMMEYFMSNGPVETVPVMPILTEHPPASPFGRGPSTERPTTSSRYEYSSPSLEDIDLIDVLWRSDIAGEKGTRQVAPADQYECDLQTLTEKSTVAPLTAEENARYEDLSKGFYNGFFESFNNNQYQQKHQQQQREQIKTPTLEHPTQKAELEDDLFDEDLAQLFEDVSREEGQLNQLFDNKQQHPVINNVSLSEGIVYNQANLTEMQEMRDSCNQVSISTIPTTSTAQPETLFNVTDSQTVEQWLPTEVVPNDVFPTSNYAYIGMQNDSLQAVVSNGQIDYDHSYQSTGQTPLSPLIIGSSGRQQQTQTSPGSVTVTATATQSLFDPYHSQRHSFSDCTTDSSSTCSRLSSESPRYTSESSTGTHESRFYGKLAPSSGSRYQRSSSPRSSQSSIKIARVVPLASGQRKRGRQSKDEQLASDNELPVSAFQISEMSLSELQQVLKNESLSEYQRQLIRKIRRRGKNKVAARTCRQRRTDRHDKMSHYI

BJ [6] = assay: cells; format: functional, cell-based; details: Homo sapiens
[7] = target: T3, Replicative DNA helicase DnaB (Mycobacterium tuberculosis, UniProt P9WMR3); assay: DnaB intein splicing inhibitors, dose response, biochemical, cell-free fluorescence (AID 449749); format: functional
T3 sequence (P9WMR3 whole entry): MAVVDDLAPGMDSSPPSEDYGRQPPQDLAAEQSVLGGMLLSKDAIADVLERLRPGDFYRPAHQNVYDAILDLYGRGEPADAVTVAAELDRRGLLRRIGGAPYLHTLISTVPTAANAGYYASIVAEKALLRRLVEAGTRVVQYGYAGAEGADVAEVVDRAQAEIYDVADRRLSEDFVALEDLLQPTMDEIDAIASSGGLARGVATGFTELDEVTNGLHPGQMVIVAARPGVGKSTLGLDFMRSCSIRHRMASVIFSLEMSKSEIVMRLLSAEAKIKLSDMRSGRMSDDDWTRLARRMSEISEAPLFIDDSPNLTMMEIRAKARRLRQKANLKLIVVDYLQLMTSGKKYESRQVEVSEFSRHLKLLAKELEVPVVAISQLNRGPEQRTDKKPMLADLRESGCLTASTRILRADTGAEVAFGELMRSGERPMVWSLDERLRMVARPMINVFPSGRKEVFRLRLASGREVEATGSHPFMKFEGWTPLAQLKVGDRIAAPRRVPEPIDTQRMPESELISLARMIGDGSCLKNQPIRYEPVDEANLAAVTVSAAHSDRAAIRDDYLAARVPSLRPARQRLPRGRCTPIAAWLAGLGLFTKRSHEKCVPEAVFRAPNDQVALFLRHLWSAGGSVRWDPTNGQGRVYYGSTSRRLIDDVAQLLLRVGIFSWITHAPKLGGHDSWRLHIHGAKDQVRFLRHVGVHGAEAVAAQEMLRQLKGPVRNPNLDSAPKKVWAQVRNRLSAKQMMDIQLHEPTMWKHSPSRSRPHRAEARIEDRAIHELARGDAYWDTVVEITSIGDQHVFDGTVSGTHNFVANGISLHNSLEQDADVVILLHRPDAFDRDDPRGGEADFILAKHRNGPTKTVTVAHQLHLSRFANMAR

BJ [8] = assay: BJ-TERT fibroblast viability loss – cell-based, RAS-independent, luminescence, dose response (AID 1933); format: functional; details: Homo sapiens
BJ [9] = assay: BJ-TERT-LT-ST fibroblast viability loss – cell-based, RAS-independent, luminescence, dose response (AID 1935); format: functional; details: Homo sapiens;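 further: BJ fibroblasts immortalized with TERT plus LT and ST oncogenes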
[10] = microbe, parasite or virus in culture; format: functional; details: Mycobacterium tuberculosis
[11] = DRD fibroblast viability loss – cell-based, non-viral oncogenic, luminescence, dose response (AID 1934); format: functional; details: Homo sapiens
Protein RecA = target: T4, Protein RecA (Mycobacterium tuberculosis, UniProt P9WHJ3); assay: Fluorescence Cell-Free Homogeneous Dose Retest to Identify Inhibitors of RecA-Intein Splicing Activity. [Related pubchem assays (depositor defined):AID2097, AID2223, AID489010, AID492950]; format: functional
T4 sequence (P9WHJ3 whole entry): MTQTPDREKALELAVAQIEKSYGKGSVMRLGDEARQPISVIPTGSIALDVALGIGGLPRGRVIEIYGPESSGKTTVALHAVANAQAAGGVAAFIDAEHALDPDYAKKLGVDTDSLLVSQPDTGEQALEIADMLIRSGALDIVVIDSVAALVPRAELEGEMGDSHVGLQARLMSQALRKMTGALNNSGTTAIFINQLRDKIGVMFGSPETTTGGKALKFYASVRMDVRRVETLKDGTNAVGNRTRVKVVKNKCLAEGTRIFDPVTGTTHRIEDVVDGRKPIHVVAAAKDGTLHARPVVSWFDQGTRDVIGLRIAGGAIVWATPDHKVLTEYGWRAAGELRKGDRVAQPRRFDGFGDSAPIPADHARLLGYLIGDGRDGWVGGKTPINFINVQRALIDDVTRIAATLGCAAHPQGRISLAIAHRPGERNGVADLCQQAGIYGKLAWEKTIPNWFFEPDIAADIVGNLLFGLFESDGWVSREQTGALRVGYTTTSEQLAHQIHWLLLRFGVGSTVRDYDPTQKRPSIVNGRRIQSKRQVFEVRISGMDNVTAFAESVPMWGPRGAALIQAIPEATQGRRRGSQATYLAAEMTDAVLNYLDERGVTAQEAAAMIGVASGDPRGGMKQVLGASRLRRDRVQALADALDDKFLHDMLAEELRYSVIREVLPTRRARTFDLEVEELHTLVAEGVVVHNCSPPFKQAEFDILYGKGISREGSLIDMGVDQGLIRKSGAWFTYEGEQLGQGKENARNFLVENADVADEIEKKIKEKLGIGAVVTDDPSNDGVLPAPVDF

[12] = target: T5, Corticotropin-releasing factor receptor 2/Corticotropin-releasing factor-binding protein (Homo sapiens, UniProt P24387+Q13324); assay: activators of CRF receptor 2 with binding protein – uHTS hits, confirmation (AID 602473); format: functional; details: read-out: EC50_Mean
T5 sequence (Q13324 whole entry): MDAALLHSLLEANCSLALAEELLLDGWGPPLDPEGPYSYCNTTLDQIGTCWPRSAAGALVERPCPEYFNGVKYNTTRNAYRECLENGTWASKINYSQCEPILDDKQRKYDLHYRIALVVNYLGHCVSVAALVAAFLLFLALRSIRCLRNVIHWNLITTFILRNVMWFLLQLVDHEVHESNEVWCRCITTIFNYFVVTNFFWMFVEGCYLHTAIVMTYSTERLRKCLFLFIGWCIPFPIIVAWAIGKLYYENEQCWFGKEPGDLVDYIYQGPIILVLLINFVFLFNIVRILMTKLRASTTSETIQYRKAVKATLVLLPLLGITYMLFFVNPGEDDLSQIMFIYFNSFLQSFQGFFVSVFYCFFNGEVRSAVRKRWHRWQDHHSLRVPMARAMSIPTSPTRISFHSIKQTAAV
T5 sequence (P24387 whole entry): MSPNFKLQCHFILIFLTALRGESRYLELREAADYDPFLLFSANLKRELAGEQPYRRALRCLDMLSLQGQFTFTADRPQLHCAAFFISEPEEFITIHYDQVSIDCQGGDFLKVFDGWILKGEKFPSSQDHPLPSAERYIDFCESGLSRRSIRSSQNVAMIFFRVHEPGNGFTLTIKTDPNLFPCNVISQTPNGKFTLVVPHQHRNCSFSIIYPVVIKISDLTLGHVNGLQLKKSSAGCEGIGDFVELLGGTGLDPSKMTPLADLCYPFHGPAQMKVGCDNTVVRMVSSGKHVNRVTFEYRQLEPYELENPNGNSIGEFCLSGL

[13] = Trypanosoma cruzi growth suppression in host cells – NIH3T3 host cells, beta-gal luminescence, confirmation (AID 2044); format: functional, cell-based;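 further: intracellular parasites grown in NIH/3T3 mouse fibroblasts as host cells; luminescent beta-galactosidase reporter signal from transgenic T. cruzi replicating inside host cells; inhibitors lower the luminescence signal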
[14] = NIH3T3 cell viability loss – ATP luminescence, mouse fibroblasts, counter-screen, dose response (AID 2010); format: functional, cell-based;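 further: cells exposed to compound for about 90 hours before reading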
Leucine aminopeptidase = target: T6, Leucine aminopeptidase (Plasmodium falciparum 3D7, UniProt Q8IL11); assay: P. falciparum M17LAP inhibitors, primary screen, biochemical, fluorogenic H-Leu-NHMec substrate, 1536-well (AID 1619); format: functional
T6 sequence (Q8IL11 whole entry): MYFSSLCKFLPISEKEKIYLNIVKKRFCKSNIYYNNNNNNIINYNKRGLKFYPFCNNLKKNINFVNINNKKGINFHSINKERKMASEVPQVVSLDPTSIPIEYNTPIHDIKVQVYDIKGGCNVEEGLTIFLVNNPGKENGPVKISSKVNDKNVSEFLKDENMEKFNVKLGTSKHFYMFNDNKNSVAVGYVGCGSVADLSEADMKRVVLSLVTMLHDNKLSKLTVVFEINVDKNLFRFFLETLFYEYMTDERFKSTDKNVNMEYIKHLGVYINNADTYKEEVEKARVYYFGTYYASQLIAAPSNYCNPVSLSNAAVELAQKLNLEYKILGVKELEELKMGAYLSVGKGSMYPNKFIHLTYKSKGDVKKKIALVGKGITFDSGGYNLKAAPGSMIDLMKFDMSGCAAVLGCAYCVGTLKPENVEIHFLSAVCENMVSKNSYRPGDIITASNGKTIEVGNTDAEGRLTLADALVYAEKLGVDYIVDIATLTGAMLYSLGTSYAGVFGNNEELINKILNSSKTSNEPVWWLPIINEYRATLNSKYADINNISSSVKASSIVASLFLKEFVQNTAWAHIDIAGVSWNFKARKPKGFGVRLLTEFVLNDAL

CCCC(=O)Nc1ccccc1NC(=O)CCC
IC50 [1]: > 50 µM (not active)

C/C(=N\NC(=S)NC1CCCCC1)c1ccc(OC(F)F)cc1OC(F)F
IC50 [1]: 3.12 µM (not active)

COc1cccc(S(=O)(=O)N(C)C[C@@H]2Oc3ncc(C#Cc4ccc(C(F)(F)F)cc4)cc3C(=O)N([C@H](C)CO)C[C@@H]2C)c1
AC50 [2]: 4.11 µM (active)

C[C@H]1CN([C@@H](C)CO)C(=O)c2ccccc2-c2ccccc2CO[C@@H]1CN(C)C(=O)CCC(F)(F)F
AC50 [3]: 1.1 µM (active) | AC50 [4]: 1.48 µM (active) | AC50 [5]: 2.55 µM (active)

COc1ccccc1NC(=O)N[C@H]1C=C[C@@H](CC(=O)N[C@H](C)c2ccccc2)O[C@H]1CO
AC50 [3]: 4.72 µM (active) | AC50 [4]: 3.38 µM (active) | AC50 [5]: 11 µM (active)

CCC(=O)N1C[C@H](C)[C@H](OC)CN(C)C(=O)c2cc(NC(=O)Nc3cccc(F)c3)ccc2OC[C@@H]1C
AC50 [2]: 9.89 µM (active)

O=C(CSc1nnnn1C1CCCCC1)Nc1cccc(NC(=O)c2ccco2)c1
IC50 (Protein skinhead-1): > 100 µM (inactive)

O=C(C[C@@H]1CC[C@@H]2[C@H](COC[C@@H](O)CN2C(=O)c2ccccc2F)O1)NCc1ccc(-c2ccccc2)cc1
AC50 [2]: 6.33 µM (active)

Cc1cccc(N2CCN(C(=O)CN3C(=O)C4CC=CCC4C3=O)CC2)c1C (stereo unspecified)
IC50 [1]: > 50 µM (not active)

CN(C(=O)c1ccco1)c1nc(-c2ccccc2)cs1
IC50 (Protein skinhead-1): 100 µM (inactive)

CN(Cc1ccc(Cl)s1)C(=O)CCl
EC50 (BJ [6]): > 150 µM (inconclusive) | AC50 [7]: 50.5 µM (active) | EC50 (BJ [8]): 5.73 µM (active) | EC50 (BJ [9]): > 150 µM (inconclusive) | CC50 [10]: 11.7 µM (active) | EC50 [11]: 27.6 µM (active) | EC50 (Protein RecA): 8.93 µM (active)

CCOc1ccc(/C=N/OCC(=O)NC(c2ccccc2)c2ccccc2)cc1
IC50 [1]: 7.59 µM (not active) | EC50 [12]: > 53 µM (inactive)

CC(C)CCN(C(=O)Nc1ccccc1)C(C)c1cccs1 (stereo unspecified)
IC50 [1]: 20.3 µM (not active)

O=C(C[C@H]1C[C@H]2c3cc(NC(=O)Nc4ccccc4)ccc3O[C@H]2[C@@H](CO)O1)NC1CCCC1
AC50 [2]: 6.1 µM (active)

O=C(/C=C/Nc1ccc(F)c(F)c1)c1cccs1
IC50 (Protein skinhead-1): 18.2 µM (active)

CN(CC(=O)Nc1nc2ccccc2s1)S(=O)(=O)c1ccc(Cl)cc1
IC50 (Protein skinhead-1): > 100 µM (inactive)

Cc1ccc(Nc2nc(-c3cccs3)cs2)nc1
IC50 (Protein skinhead-1): 54.6 µM (inactive)

Cc1ccccc1-n1c(SCC(=O)O)nc2sc3c(c2c1=O)CCCC3
IC50 (Protein skinhead-1): > 100 µM (inactive)

CCN=C(S)N(CCc1c(C)[nH]c2ccc(Cl)cc12)Cc1ccco1
IC50 [1]: 9.05 µM (not active) | EC50 [13]: 2.81 µM (active) | EC50 [14]: > 60 µM (not active)

CCSc1ncc(/C=N/Nc2ccccc2)n1C
IC50 (Protein skinhead-1): > 100 µM (inactive)

N#CC1=C(N)Oc2[nH]nc(-c3ccc(F)cc3)c2C1c1cccnc1 (stereo unspecified)
AC50 [7]: 7.8 µM (active) | IC50 (Leucine aminopeptidase): 61.2 µM (active) | EC50 (Protein RecA): 1.63 µM (active)
